{
  "source": "patent US20260001875A1",
  "about": "“AMINOPYRIMIDINYL DERIVATIVES FOR THE TREATMENT OF PARKINSON'S DISEASE” (UNIVERSITY OF DUNDEE, priority 2022, published 2026)",
  "key": {"VHL [1]": {"molecular_target": "T1, VHL (Homo sapiens, UniProt P40337)", "assay": "NanoBRET VHL target engagement in HEK293 cells", "format": "binding", "parameters": "host or cells: HEK293", "conditions": "for IC50: read-out: IC50 VHL tracer displacement", "method": "(§1) For VHL and LRRK2 target engagement experiments in live and permeabilized cells, the HEK293 cells were transfected with VHL-NanoLuc fusion vector (Promega, N275A) or LRRK2-NanoLuc fusion vector (Promega, NV3401) following Promega's protocol and seeded into white 384-well plate (Corning3570) at a density of 6000 cells/well. To measure NanoBRET in permeabilized cells, the cells were treated with 50 μg/mL digitonin (Sigma, D141), 125 nM VHL tracer/125 nM LRRK2 tracer, testing compounds at decreasing concentrations (12 concentrations with 2-fold serial dilution starting from 33 μM), and NanoBRET NanoGlo Substrate (Promega) at concentration recommended by the manufacturer's protocol. In the maximum signal control samples (DMSO control), DMSO was added instead of testing compounds. In the minimum signal control samples (no tracer control), DMSO and tracer dilution buffer were used to replace testing compounds and tracer separately. The filtered luminescence was measured within 10 min following addition of the substrate on a GloMax Discover microplate reader (Promega) or a PHERAstar (BMG LABTECH) plate reader equipped with a 450-nm bandpass filter (donor) and a 600-nm long pass filter (acceptor). To measure NanoBRET in live cells, the cells were treated with 250 nM VHL tracer/500 nM LRRK2 tracer, testing compounds at testing compounds at decreasing concentrations (12 concentrations with 2-fold serial dilution starting from 33 μM) and incubated at 37° C. in an incubator for 2 h. The plates were then cooled down and added with NanoBRET NanoGlo Substrate and Extracellular NanoLuc Inhibitor (Promega, N2160) before performing the same NanoBRET reading as the permeabilized mode on plate readers. NanoBRET ratio of each well was expressed in milliBRET according to the equation: mBRET=[(signal at […]/signal at 450 nM)−(signal at 610 nMno tracer control/signal at 450 nMno tracer control)]×1000. The fractional occupancy was calculated according to the equation: fractional occupancy=(mBRETtesting compound−mBRETno tracer control)/(mBRETDMSO control−mBRETno tracer control)."}, "LRRK2^G2019S": {"molecular_target": "T2, LRRK2^G2019S (Mus musculus, UniProt Q5S006, G2019S)", "T2 construct": "endogenous in cells; host or cells: LRRK2[G2019S] mouse embryonic fibroblasts (MEFs)", "assay": "Western blot LRRK2 degradation in LRRK2^G2019S MEFs", "format": "cell-based"}, "LRRK2": {"molecular_target": "LRRK2 (Homo sapiens, UniProt Q5S007)", "assay": "NanoBRET LRRK2 target engagement in HEK293 cells", "format": "binding", "parameters": "host or cells: HEK293", "conditions": "for IC50: read-out: IC50 LRRK2 tracer displacement", "method": "as §1"}, "VHL [2]": {"molecular_target": "T1, VHL", "assay": "Fluorescence polarization competitive binding assay", "conditions": "for Ki: displacement of FAM-labelled HIF-1α peptide from VCB", "method": "FP competitive binding assays were performed following the method described previously (Bond et al, J. Med. Chem. 2021, 64 (20), 15477-15502.). All the measurements were taken on a PHERstar (BMG LABTECH) plate reader installed with a FP filter that sets excitation and emission wavelengths at 485 nm and 520 nM separately. Each well of 384-well plate (Coring 3575) contains 10 nM VCB protein, 5 nM FAM-lableled HIF-1α peptide (FAM-DEALAHyp[…], “JC9”), and decreasing concentrations of PROTACs (14 concentrations with 2-fold serial dilution starting from 250 μM) in FP assay buffer (100 mM Bis-Tris propane, 100 mM NaCl, 1 mM TCEP, pH 7) with a final DMSO concentration of 5%. The control wells containing the VCB and JC9 with no compound are set as the maximum signals (zero displacement). And the control wells containing JC9 in the absence of protein are set as the minimum signals. Control values were used to obtain the percentage of displacement which was graphed against Log [Compound]. Average IC50 values were determined for each titration using nonlinear regression analysis with Prism (v.9.3.1)."}, "Rab10 pThr73": {"test_system": "Rab10 pThr73", "assay": "Rab10 Thr73 dephosphorylation (immunoblot) in LRRK2^G2019S MEFs", "format": "cell-based, mouse", "conditions": "for EC50: dose response, read-out: G2019S MEFs-pRab10-dephosphorylation EC50; for inhibition at 1 µM: read-out: pRab10 inhibited in LRRK2^G2019S MEFs"}, "[3]": {"conditions": "time course at 300 nM, LRRK2^G2019S MEFs"}, "[4]": {"conditions": "Mus musculus, 1 μM/4 h treatment"}},
  "note": "“Also recorded” adds a separate entry of the source. Read-outs that look alike come from different tables or passages of the source.",
  "data": [
    {"smiles": "CNc1nc(Nc2ccc(C(=O)N3CCN(C[C@H]4CC[C@H](CSC(C)(C)[C@H](NC(=O)C5(F)CC5)C(=O)N5C[C@H](O)CC5C(=O)NCc5ccc(-c6scnc6C)cc5)CC4)CC3)cc2OC)ncc1Cl", "note": "(stereo partly drawn) [XL01126, (2S,4R)-1-((R)-3-((((1R,4R)-4-((4-(4-((5-chloro-4-(methylamino)pyrimidin-2-yl)amino)-3-methoxybenzoyl)piperazin-1-yl)methyl)cyclohexyl)methyl)thio)-2-(1-fluorocyclopropane-1-carboxamido)-3-methylbutanoyl)-4-hydroxy-N-(4-(4-methylthiazol-5-yl)benzyl)pyrrolidine-2-carboxamide]", "values": [
      {"measurement": "IC50", "setting": "VHL [1]; live HEK293 cells", "result": 10100, "unit": "nM"},
      {"measurement": "VHL tracer displacement (in words)", "setting": "VHL [1]; permeabilized HEK293 cells", "result": "poor displacement"},
      {"measurement": "T1/2 of LRRK2^G2019S degradation", "setting": "LRRK2^G2019S; time course at 300 nM", "result": 36, "unit": "min"},
      {"measurement": "IC50", "setting": "LRRK2; live HEK293 cells", "result": 1400, "unit": "nM"},
      {"measurement": "LRRK2 tracer displacement (in words)", "setting": "LRRK2; permeabilized HEK293 cells", "result": "poor displacement"},
      {"measurement": "Ki", "setting": "VHL [2]", "result": "908 to 5950", "unit": "nM"},
      {"measurement": "EC50", "setting": "Rab10 pThr73; Mus musculus, 4 h treatment", "result": 15, "unit": "nM"},
      {"measurement": "T1/2 of Rab10 dephosphorylation (G2019S)", "setting": "Rab10 pThr73; [3]", "result": 18, "unit": "min"}
    ]},
    {"smiles": "CNc1nc(Nc2ccc(C(=O)N3CCN(CCOCCOCCSC(C)(C)[C@H](NC(=O)C4(F)CC4)C(=O)N4C[C@H](O)C[C@H]4C(=O)NCc4ccc(-c5scnc5C)cc4)CC3)cc2OC)ncc1Cl", "note": "[SD75, (2S,4R)-1-((R)-3-((2-(2-(2-(4-(4-((5-chloro-4-(methylamino)pyrimidin-2-yl)amino)-3-methoxybenzoyl)piperazin-1-yl)ethoxy)ethoxy)ethyl)thio)-2-(1-fluorocyclopropane-1-carboxamido)-3-methylbutanoyl)-4-hydroxy-N-(4-(4-methylthiazol-5-yl)benzyl)pyrrolidine-2-carboxamide]", "values": [
      {"measurement": "IC50", "setting": "VHL [1]; live HEK293 cells", "result": 2500, "unit": "nM"},
      {"measurement": "IC50", "setting": "VHL [1]; permeabilized HEK293 cells", "result": 1900, "unit": "nM"},
      {"measurement": "IC50 ratio IC50, per/IC50, live (VHL engagement)", "setting": "VHL [1]; permeabilized vs live mode", "result": 0.76},
      {"measurement": "T1/2 of LRRK2^G2019S degradation", "setting": "LRRK2^G2019S; time course at 1000 nM", "result": 66, "unit": "min"},
      {"measurement": "IC50", "setting": "LRRK2; live HEK293 cells", "result": 1800, "unit": "nM"},
      {"measurement": "IC50", "setting": "LRRK2; permeabilized HEK293 cells", "result": 780, "unit": "nM"},
      {"measurement": "IC50 ratio IC50, per/IC50, live (LRRK2 engagement)", "setting": "LRRK2; permeabilized vs live mode", "result": 0.43},
      {"measurement": "Ki", "setting": "VHL [2]", "result": 820, "unit": "nM"},
      {"measurement": "inhibition at 1 µM", "setting": "Rab10 pThr73; [4]", "result": "30 to 95", "unit": "%"},
      {"measurement": "Dmax at 1 µM", "setting": "Rab10 pThr73; Mus musculus, time course at 1000 nM, LRRK2^G2019S MEFs", "result": 74, "unit": "%"},
      {"measurement": "EC50", "setting": "Rab10 pThr73; 24 h treatment", "result": 379, "unit": "nM"},
      {"measurement": "T1/2 of Rab10 dephosphorylation (G2019S)", "setting": "Rab10 pThr73; time course at 1000 nM, LRRK2^G2019S MEFs", "result": 42, "unit": "min"}
    ]},
    {"smiles": "CNc1nc(Nc2ccc(C(=O)N3CCN(C[C@H]4CC[C@@H](CSC(C)(C)[C@H](NC(=O)C5(F)CC5)C(=O)N5C[C@H](O)CC5C(=O)NCc5ccc(-c6scnc6C)cc5)CC4)CC3)cc2OC)ncc1Cl", "note": "(stereo partly shown) [XL01134]", "values": [
      {"measurement": "IC50", "setting": "VHL [1]; live HEK293 cells", "result": 880, "unit": "nM"},
      {"measurement": "IC50", "setting": "VHL [1]; permeabilized HEK293 cells", "result": 780, "unit": "nM"},
      {"measurement": "Dmax at 0.3 µM", "setting": "LRRK2^G2019S; time course at 300 nM", "result": 82, "unit": "%"},
      {"measurement": "T1/2 of LRRK2^G2019S degradation", "setting": "LRRK2^G2019S; time course at 300 nM", "result": 84, "unit": "min"},
      {"measurement": "IC50", "setting": "LRRK2; live HEK293 cells", "result": 2200, "unit": "nM"},
      {"measurement": "IC50", "setting": "LRRK2; permeabilized HEK293 cells", "result": 2000, "unit": "nM"},
      {"measurement": "Ki", "setting": "VHL [2]", "result": 160, "unit": "nM"},
      {"measurement": "inhibition at 1 µM", "setting": "Rab10 pThr73; [4]", "result": "20 to 100", "unit": "%"},
      {"measurement": "inhibition at 1 µM", "setting": "Rab10 pThr73; Mus musculus, 1 μM/24 h treatment", "result": "10 to 100", "unit": "%"},
      {"measurement": "EC50", "setting": "Rab10 pThr73; Mus musculus, 4 h treatment", "result": 12, "unit": "nM"},
      {"measurement": "Dmax at 0.3 µM", "setting": "Rab10 pThr73; Mus musculus, time course at 300 nM, LRRK2^G2019S MEFs", "result": 87, "unit": "%"},
      {"measurement": "T1/2 of Rab10 dephosphorylation (G2019S)", "setting": "Rab10 pThr73; [3]", "result": 18, "unit": "min"}
    ]},
    {"smiles": "CNc1nc(Nc2ccc(C(=O)N3CCN(C[C@H]4CC[C@H](CSC(C)(C)[C@H](NC(=O)C5(F)CC5)C(=O)N5C[C@@H](O)CC5C(=O)NCc5ccc(-c6scnc6C)cc5)CC4)CC3)cc2OC)ncc1Cl", "note": "(stereo partly drawn) [Cis-XL01126, (2S,4S)-1-((R)-3-((((1r,4R)-4-((4-(4-((5-chloro-4-(methylamino)pyrimidin-2-yl)amino)-3-methoxybenzoyl)piperazin-1-yl)methyl)cyclohexyl)methyl)thio)-2-(1-fluorocyclopropane-1-carboxamido)-3-methylbutanoyl)-4-hydroxy-N-(4-(4-methylthiazol-5-yl)benzyl)pyrrolidine-2-carboxamide]", "values": [
      {"measurement": "Ki", "setting": "VHL [2]", "result": "> 50000", "unit": "nM"},
      {"measurement": "binding to VHL (in words)", "setting": "VHL [2]; fluorescence polarization", "result": "does not bind to VHL E3 ligase; also recorded: did not displace the fluorescent tracer"}
    ]}
  ]
}
